Experimental findings from PMC10283505, “CVM-1118 (foslinanib), a 2-phenyl-4-quinolone derivative, promotes apoptosis and inhibits vasculogenic mimicry via targeting TRAP1” (Pathology and Oncology Research, 2023) are described below.

Bounds are passed on as bounds.

In data set [1] the test system is K-562. The experiment in a line: NCI 60 cytotoxicity screening. The conditions noted are these: Homo sapiens, K562; K-562, Leukemia. In kind it is cell-based.
Data set [2] deals with OVCAR-4. The experiment in a line: NCI 60 cytotoxicity screening. It counts as cell-based. The conditions noted are these: Homo sapiens; OVCAR-4, Ovarian.
Data set [3] relates to HCT-15. The experiment in a line: NCI 60 cytotoxicity screening. It counts as cell-based. The conditions noted are these: Homo sapiens; HCT-15, Colon.
Data set [4] has as its system SF-539. The experiment in a line: NCI 60 cytotoxicity screening. In kind it is cell-based. The conditions noted are these: Homo sapiens; SF-539, CNS.
Data set [5] relates to HT29. The experiment in a line: NCI 60 cytotoxicity screening. In kind it is cell-based. As to conditions: Homo sapiens, HT-29; HT29, Colon.
For data set [6], the system named is COLO 205. The experiment in a line: NCI 60 cytotoxicity screening. It counts as cell-based. As to conditions: Homo sapiens; COLO 205, Colon.
Data set [7] concerns HL-60(TB). Briefly: NCI 60 cytotoxicity screening. It counts as cell-based. The conditions noted are these: Homo sapiens, Leukemia.
Data set [8] deals with T-47D. Briefly: NCI 60 cytotoxicity screening. It counts as cell-based. As to conditions: Homo sapiens, T47D, Breast.
For data set [9], the target named is GADD45GIP1 (Homo sapiens, UniProt Q8TAE8). The experiment in a line: Surface plasmon resonance (Biacore). It counts as binding. The conditions noted are these: GADD45GIP1, SPR.
Data set [10] relates to SKOV3. Briefly: Succinate level (Abcam kit, hypoxia). It counts as cell-based, human. The conditions noted are these: SKOV3, 100 nM, 72 h, vs vehicle control. As to the method:
(§1) Succinate levels in the cells were assessed using the Abcam assay kit (ab204718). Cells were grown under hypoxic conditions (1% O2) at 37°C using a ProOx P110 Oxygen Controller (BioSpherix) and hypoxia chamber to establish a consistent and steady expression of HIF-1α in these cells for the experiments. At 80% confluence, cells were rinsed with phosphate buffered saline (PBS; 137 mM NaCl/2.7 mM KCl/10 mM Na2HPO4/1.8 mM KH2PO4, pH 7.4), then harvested by scrapping into a modified radio-immunoprecipitation assay (RIPA) buffer (100 mM Tris-HCl, 150 mM NaCl, 1% deoxycholate, 1% Triton X-100, 0.1% SDS, pH 7.4) plus protease inhibitor cocktail (Complete Mini; Roche) using 100 μL buffer per 1 × 10^6 cells. After sonication using a Fisher sonic dismembrator with microprobe (Fisher Scientific; five pulses at 2 s intervals) and centrifugation at 13,000 rpm for 30 min, the protein lysates (supernatants) were recovered, and protein concentrations determined using a bicinchoninic acid (BCA) assay (Bio-Rad). The samples were then deproteinated using Abcam 10 kDa Spin Columns (ab93349; which reduced the protein concentration by about 90%) and the samples were standardized at <10 μg of protein per sample per 50 μL of assay volume (as directed by the Abcam technical response team for working with these samples). The concentration of succinate (nmol/μL or μmol/mL or […]) for each sample was calculated after subtracting a background control (which was the sample run with assay buffer in place of the succinate converter component to account for and subtract any contaminating signal generated by NADH), as follows: Succinate = (A/B) × D; where: A = Amount of succinate (succinic acid) from the Standard Curve; B = Sample volume added into the reaction well (μL); D = Sample dilution factor. Two separate experiments were performed for each cell line.

Data set [11] concerns MDA-MB-231. Briefly: Succinate level (Abcam kit, hypoxia). In kind it is cell-based, human. As to conditions: MDA-MB-231, 100 nM, 72 h, vs vehicle control. As to the method:
as §1

Data set [12] concerns SK-MEL28. Briefly: Succinate level (Abcam kit, hypoxia). In kind it is cell-based, human. As to conditions: SK-MEL28, 100 nM, 72 h, vs vehicle control. As to the method:
as §1

Data set [13] has as its system COLO205. Briefly: Succinate level (Abcam kit, hypoxia). It counts as cell-based, human. The conditions noted are these: COLO205, 100 nM, 72 h, vs vehicle control. As to the method: as §1
Data set [14] relates to Notch4 ICD. The experiment in a line: qPCR analysis of Notch4 expression. In kind it is cell-based, human. The conditions noted are these: C8161, 10 nM, 8–72 h. As to the method:
For the qPCR analysis of Nodal and Notch expression, total RNA was isolated from cells using the PerfectPure RNA Cell Isolation kit (5Prime) and then reverse-transcribed using 1 μg RNA, RT master mix cocktail and MMLV reverse transcriptase. qPCR was performed on a 7500 Real-Time PCR System (Life Technologies) using manufacturer recommended protocol. TaqMan gene expression human primer/probe sets (Applied Biosystems) utilized were Nodal (Hs00250630_s1) and Notch4 (Hs00270200_m1). Target gene expression was normalized to appropriate house-keeping genes (e.g., RPLP0 or GAPDH). Data was analyzed using Life Technologies Sequence Detection Software.

Data set [15] in a line: Cell viability at VM-inhibiting concentration. As to conditions: human, human melanoma cells; 10 nM; read-out: percentage of viable cells. It counts as cell-based.
Data set [16] concerns HCT-116. Briefly: Orthotopic HCT-116 mouse xenograft study, tumor volume. It counts as in vivo, BALB/c nude mice. The conditions noted are these: for tumor volume: day 43, vehicle 1,139 ± 580. As for the experimental part: This animal study was contracted to CrownBio International R&D Center (Beijing, China) and was conducted under the approval of the Animal Ethics Committee at CrownBio in compliance with institutional and national guidelines. Seven-to eight-week-old female BALB/c nude mice were obtained from HFK Bio-Technology Co., Ltd. (Beijing, China). HCT-116 cells (2 × 10^6) were suspended in 20 μL PBS and then injected into the cecal wall. Treatment began on day 14 after cell inoculation when tumor reached ∼100 mm^3 measured in a satellite group of three mice. Treatment groups include vehicle control [PEG400:pH 10 carbonate buffer (40:60)], CVM-1118 at 20, 50, and 100 mg/kg given orally daily for 28 days, and CVM-1118 at 20 mg/kg given as intravenous injection once every 2 days for 7 times. Tumor volumes were measured at the end of in-life study on day 43. At the end of in vivo study, tumor tissues from selected groups were excised, collected, and subjected to standard immunohistochemical procedures to visualize the effect of CVM-1118 on VM network formation. Briefly, rabbit anti-human CD31 antibody (Abcam) was used as the primary Ab for the staining and the number of channels with CD31+/red blood cell (RBC)+, or CD31−/RBC+ were counted based on five light fields (×200) on the whole section of each sample in each group under microscope. Analysis of difference in tumor volume for drug-treated group against vehicle control group was conducted using one-way ANOVA followed by least significant difference (LSD) test (equal variance tested and confirmed by Brown-Forsythe test). Statistical analysis for VM formation was evaluated using Mann-Whitney test. All data were analyzed using GraphPad Prism 9.5.

The term GI50 denotes the concentration that inhibits growth by half. Lower therefore signals greater sensitivity of the cells. For `COc1ccc2[nH]c(-c3cccc(F)c3)cc(=O)c2c1O` [CVM-1125], the GI50 stood at 24.1 nM in data set [1]; 43.6 nM in [2]; 35.5 nM in data set [3]; 26.2 nM in data set [4]; 29 nM in data set [5]; 25.2 nM in [6]. Moreover, the GI50 was 22.2 nM in [7] and 28 nM in [8]. In data set [9], the “Association (ka)” value was “No interaction”. Besides, the “Dissociation (kd)” value in [9] is listed as “No interaction”. For the same molecule, the “KD (kd/ka)” value in [9] is “No interaction”. Further, the “reduction of succinate levels” value in data set [10] worked out at 35%; in data set [11], 20%; in data set [12] it was 23%; in [13], 18%.

Take `COc1ccc2[nH]c(-c3cccc(F)c3)cc(=O)c2c1OP(=O)(O)O` [CVM-1118]: the “expression of Notch4 ICD (mRNA)” value in data set [14] was “decreased”. Also, the viability at 0.01 µM in data set [15] is more than 90%. Besides, the tumor volume in data set [16] (20 mg/kg i.v. once every 2 days for 7 times) is reported as 670 ± 447 mm^3; in data set [16] (20 mg/kg orally daily for 28 days), 1,591 ± 747 mm^3; in data set [16] (50 mg/kg orally daily for 28 days), 722 ± 595 mm^3; in [16] (100 mg/kg orally daily for 28 days), 475 ± 415 mm^3. Besides, the results for the “animals found dead prior to the termination of the study” value in data set [16] (20 mg/kg i.v. treatment group) and in [16] (50 mg/kg oral treatment group) were “two mice” and “One mouse”, respectively.
